Assay results taken from patent publication US10738011B2, “Derivatives of 5-(hetero)arylpyrazol-3-carboxylic amide or 1-(hetero)aryltriazol-4-carboxylic amide useful for the treatment of inter alia cystic fibrosis” (Proteostasis Therapeutics, Inc., priority 2014, dated 2020).

Target: T1, ΔF508-CFTR (Homo sapiens, UniProt P13569, DEL508-508)
T1 construct: Primary lung epithelial cells homozygous for the Cystic Fibrosis-causing ΔF508 mutation were differentiated; endogenous in cells; host or cells: primary lung (bronchial) epithelial cells (hBE) homozygous for ΔF508, differentiated at an air-liquid interface
T1 sequence (P13569 with tags, fused parts or gaps DEL508-508): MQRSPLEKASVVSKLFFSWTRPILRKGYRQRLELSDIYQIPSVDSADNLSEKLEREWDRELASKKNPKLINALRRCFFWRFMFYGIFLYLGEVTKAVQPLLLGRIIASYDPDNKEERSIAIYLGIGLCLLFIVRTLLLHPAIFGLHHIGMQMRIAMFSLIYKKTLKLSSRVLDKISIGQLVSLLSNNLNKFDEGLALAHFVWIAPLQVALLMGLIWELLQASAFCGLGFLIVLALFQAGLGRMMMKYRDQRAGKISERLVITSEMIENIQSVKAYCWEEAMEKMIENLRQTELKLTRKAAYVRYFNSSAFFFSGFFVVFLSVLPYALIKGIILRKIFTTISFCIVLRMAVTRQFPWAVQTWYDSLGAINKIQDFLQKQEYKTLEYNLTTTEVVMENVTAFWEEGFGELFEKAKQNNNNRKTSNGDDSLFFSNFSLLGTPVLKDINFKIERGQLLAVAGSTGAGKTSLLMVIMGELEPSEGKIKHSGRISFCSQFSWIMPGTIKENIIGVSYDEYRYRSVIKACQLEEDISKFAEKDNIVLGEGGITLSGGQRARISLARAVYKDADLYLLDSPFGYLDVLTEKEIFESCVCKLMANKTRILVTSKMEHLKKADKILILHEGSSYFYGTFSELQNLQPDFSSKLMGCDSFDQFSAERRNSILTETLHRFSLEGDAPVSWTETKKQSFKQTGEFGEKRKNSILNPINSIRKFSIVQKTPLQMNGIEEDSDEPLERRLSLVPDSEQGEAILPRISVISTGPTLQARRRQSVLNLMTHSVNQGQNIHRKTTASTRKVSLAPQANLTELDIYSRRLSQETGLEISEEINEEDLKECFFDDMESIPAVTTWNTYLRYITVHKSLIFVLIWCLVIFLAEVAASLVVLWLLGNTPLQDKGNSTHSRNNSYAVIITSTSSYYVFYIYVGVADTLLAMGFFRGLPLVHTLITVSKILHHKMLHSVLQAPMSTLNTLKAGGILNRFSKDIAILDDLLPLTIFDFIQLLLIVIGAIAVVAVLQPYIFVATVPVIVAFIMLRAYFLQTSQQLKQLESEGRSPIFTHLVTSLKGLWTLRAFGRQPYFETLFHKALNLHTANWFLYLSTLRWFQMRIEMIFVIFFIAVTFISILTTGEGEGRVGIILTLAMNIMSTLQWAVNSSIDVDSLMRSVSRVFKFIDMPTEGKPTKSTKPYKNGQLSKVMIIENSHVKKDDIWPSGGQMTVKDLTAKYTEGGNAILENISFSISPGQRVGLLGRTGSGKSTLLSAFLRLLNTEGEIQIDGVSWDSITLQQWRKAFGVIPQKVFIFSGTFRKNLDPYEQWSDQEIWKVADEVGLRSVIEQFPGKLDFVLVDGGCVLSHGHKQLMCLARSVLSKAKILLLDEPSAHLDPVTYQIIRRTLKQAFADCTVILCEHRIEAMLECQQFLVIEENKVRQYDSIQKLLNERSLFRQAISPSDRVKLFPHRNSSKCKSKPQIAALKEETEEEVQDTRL
Assay: hBE Equivalent Current (Ieq) Assay
Assay type: cell-based
Conditions: AUC of equivalent chloride current; primary lung epithelial cells homozygous for ΔF508; compound at 10 uM with VX-809 at 1 uM, 24 hours; activity relative to VX-809 (1 uM)
Experimental: Primary lung epithelial cells homozygous for the Cystic Fibrosis-causing ΔF508 mutation were differentiated for a minimum of 4 weeks in an air-liquid interface on Costar 24 well HTS filter plates prior to the equivalent current (Ieq) measurements. Cells were apically mucus-washed for 30 minutes 24 h prior to treatment with compounds. The basolateral media was removed and replaced with media containing the compound of interest diluted to its final concentration from DMSO stocks. Treated cells were incubated at 37° C. and 5% CO2 for 24 hours. At the end of the treatment period, the media was changed to the Ieq experimental solution for 30 minutes before the experiment and plates are maintained in a CO2-free incubator during this period. The plates containing the cells were then placed in pre-warmed heating blocks at 36° C.±0.5 for 15 minutes before measurements are taken. The transepithelial voltage (VT) and conductance (GT) were measured using a custom 24 channel current clamp (TECC-24) with 24 well electrode manifold. The Ieq assay measurements were made following additions with standardized time periods: • 1. The baseline VT and GT values were measured for approximately 20 minutes. • 2. Benzamil was added to block ENaC for 15 minutes. • 3. Forskolin plus VX-770 were added to maximally activate ΔF508-CFTR for 27 minutes. • 4. Bumetanide was added to inhibit the NaK2Cl cotransporter and shut-off secretion of chloride.
The activity data captured was the area under the curve (AUC) for the traces of the equivalent chloride current. The AUC was collected from the time of the forskolin/VX-770 addition until the inhibition by bumetanide addition. Correction in response to compound treatment was scored as the increase in the AUC for compound-treated samples over that of vehicle-treated samples. (** indicates activity ≥200% of VX-809 (1 uM) with compound at 10 uM and VX-809 at 1 uM; * indicates activity 100-200% of VX-809 (1 uM) with compound at 10 uM and VX-809 at 1 uM. ^## indicates activity ≥200% of VX-809 (3 uM) with compound at 10 uM and VX-809 at 3 uM; ^# indicates activity 100-200% of VX-809 (3 uM) with compound at 10 uM and VX-809 at 3 uM.

Question: For COCCNC(=O)c1cc(-c2ccccc2)n[nH]1, which Ieq is on record?
Answer: * (activity 100-200% of VX-809 (1 uM) with compound at 10 uM and VX-809 at 1 uM)

Question: With O=C(NCC1CCCO1)c1cc(-c2ccccc2)n[nH]1 (stereo not shown) as the compound, how does the Ieq read?
Answer: * (activity 100-200% of VX-809 (1 uM) with compound at 10 uM and VX-809 at 1 uM)

Question: With O=C(NCCN1CCOCC1)c1cc(-c2ccccc2)n[nH]1 as the compound, how does the Ieq read?
Answer: * (activity 100-200% of VX-809 (1 uM) with compound at 10 uM and VX-809 at 1 uM)

Question: With O=C(NCCCn1ccnc1)c1cc(-c2ccccc2)n[nH]1 as the compound, how does the Ieq read?
Answer: * (activity 100-200% of VX-809 (1 uM) with compound at 10 uM and VX-809 at 1 uM)
